Experimental data: patent US20080032889A1, “6-(2-Fluorophenyl)-Triazolopyrimidines, Method For The Production Thereof, Use Thereof For Controlling Harmful Fungi, And Agents Containing The Same” (BASF AKTIENGESELLSCHAFT, priority 2004, published 2008)

System: Botrytis cinerea
Test: Activity against gray mold caused by Botrytis cinerea on bell pepper plants, protective application
Assay type: in vivo
Settings: 200 ppm, protective spray, bell pepper "California Wonder", after about 3 days; untreated plants 100% infected
Experimental: Comparative Experiment 1—Activity Against Gray Mold Caused by Botrytis cinerea, Protective Application Potted bell pepper plants of the cultivar “California Wonder” were sprayed to runoff point with an aqueous suspension having the active compound concentration stated below. The suspension or emulsion had been prepared by dilution with water from a stock solution comprising 5% of active compound, 94% of cyclohexanone and 1% of emulsifier (Tween 20). 2-5 hours after the spray coating had dried on, the plants were dusted with spores of gray mold (Botrytis cinerea). The test plants were then incubated in a humid chamber at temperatures between 20 and 22° C. and at 100% relative atmospheric humidity. After about 3 days, the extent of the pathogen development was determined visually in % infection of the entire leaf area.

Q: For `CC(C)Nc1c(-c2ccccc2F)c(Cl)nc2ncnn12` [compound A], which “infection of the entire leaf area” value is on record?
A: 90%
